This is an account of results in US8563542B2 (Cyclacel Limited, priority 2007, dated 2013).

In experiment [1] the target is PLK1 (Homo sapiens, UniProt P53350). In words: PLK1 protein kinase assay (CDC25C phosphorylation, [γ-32P]-ATP). It counts as biochemical. Particulars: Table 2, PLK1 IC50; class symbols; read-out: PLK1 IC50.
For experiment [2], the target named is T1, AA (Homo sapiens, UniProt O14965).
T1 sequence (O14965 1-403): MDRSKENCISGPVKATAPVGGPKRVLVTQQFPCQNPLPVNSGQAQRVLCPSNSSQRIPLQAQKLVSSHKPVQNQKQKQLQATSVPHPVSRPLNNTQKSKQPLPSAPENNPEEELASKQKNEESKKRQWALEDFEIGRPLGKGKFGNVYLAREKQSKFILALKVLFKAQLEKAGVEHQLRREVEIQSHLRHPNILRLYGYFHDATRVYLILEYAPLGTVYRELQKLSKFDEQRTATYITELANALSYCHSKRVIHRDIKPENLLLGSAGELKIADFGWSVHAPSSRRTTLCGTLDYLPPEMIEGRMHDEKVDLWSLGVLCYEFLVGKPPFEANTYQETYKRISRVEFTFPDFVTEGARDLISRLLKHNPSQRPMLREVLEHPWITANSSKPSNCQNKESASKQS
In words: AA IC50 (Table 1; no method given). It counts as biochemical. The following applies: Table 2, AurA IC50; class symbols; read-out: AurA IC50.

Chain of PLK1 (P53350 whole entry): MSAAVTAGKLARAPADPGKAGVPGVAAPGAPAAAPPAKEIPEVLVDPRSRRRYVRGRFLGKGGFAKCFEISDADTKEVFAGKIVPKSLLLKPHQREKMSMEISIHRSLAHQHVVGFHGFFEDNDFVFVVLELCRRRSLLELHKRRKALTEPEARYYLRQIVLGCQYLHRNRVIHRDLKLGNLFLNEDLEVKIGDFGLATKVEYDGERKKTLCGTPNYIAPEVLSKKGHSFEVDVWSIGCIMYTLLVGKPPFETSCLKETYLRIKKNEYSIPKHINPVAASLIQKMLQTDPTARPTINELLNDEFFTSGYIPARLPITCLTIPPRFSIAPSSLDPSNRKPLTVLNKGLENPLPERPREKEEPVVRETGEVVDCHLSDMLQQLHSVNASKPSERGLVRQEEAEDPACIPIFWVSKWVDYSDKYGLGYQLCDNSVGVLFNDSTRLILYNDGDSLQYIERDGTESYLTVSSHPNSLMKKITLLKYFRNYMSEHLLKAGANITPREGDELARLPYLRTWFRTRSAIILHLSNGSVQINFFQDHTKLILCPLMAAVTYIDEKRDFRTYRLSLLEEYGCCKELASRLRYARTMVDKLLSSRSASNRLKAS

By IC50 is commonly meant the midpoint of a concentration-inhibition curve. On to `CN1C(=O)CCN(C2CCCC2)c2nc(Nc3ccc(CCC(=O)O)cc3)ncc21` [compound 170, 3-[4-(9-Cyclopentyl-5-methyl-6-oxo-6,7,8,9-tetrahydro-5H-pyrimido[4,5-b][1,4]diazepin-2-ylamino)-phenyl]-propionic acid], for which the IC50 is under 10000 nM in experiment [1] and under 100 nM in experiment [2].

`CC(=O)Nc1ccc(Nc2ncc3c(n2)N(C2CCCC2)CCC(=O)N3C)cc1` [compound 171, N-[4-(9-Cyclopentyl-5-methyl-6-oxo-6,7,8,9-tetrahydro-5H-pyrimido[4,5-b][1,4]diazepin-2-ylamino)-phenyl]-acetamide]: the IC50 in experiment [1] was under 10000 nM; in experiment [2] it was under 100 nM.

As to `CN1C(=O)CCN(C2CCCC2)c2nc(Nc3ccc(CC(=O)O)cc3)ncc21` [compound 172, [4-(9-Cyclopentyl-5-methyl-6-oxo-6,7,8,9-tetrahydro-5H-pyrimido[4,5-b][1,4]diazepin-2-ylamino)-phenyl]-acetic acid], the IC50 in experiment [1] is under 10000 nM; in experiment [2], under 100 nM.

Turning to `CN1C(=O)CCN(C2CCCC2)c2nc(Nc3ccc4c(c3)CC(=O)N4)ncc21` [compound 173, 9-Cyclopentyl-5-methyl-2-(2-oxo-2,3-dihydro-1H-indo1-5-ylamino)-5,7,8,9-tetrahydro-pyrimido[4,5-b][1,4]diazepin-6-one], the figures for the 50% inhibitory concentration (IC50) in experiment [1] and in experiment [2] were under 10000 nM and under 100 nM, respectively.

With `Cc1cc(C(=O)O)ccc1Nc1ncc2c(n1)N(C1CCCC1)CCC(=O)N2C` [compound 174, 4-(9-Cyclopentyl-5-methyl-6-oxo-6,7,8,9-tetrahydro-5H-pyrimido[4,5-b][1,4]diazepin-2-ylamino)-3-methyl-benzoic acid], the IC50 is under 1000 nM in experiment [1] and under 10000 nM in experiment [2].

In the case of `CN1C(=O)CCN(C2CCCC2)c2nc(Nc3ccc(C(=O)NC4CC4)cc3)ncc21` [compound 176, 4-(9-Cyclopentyl-5-methyl-6-oxo-6,7,8,9-tetrahydro-5H-pyrimido[4,5-b][1,4]diazepin-2-ylamino)-N-cyclopropyl-benzamide], the 50% inhibitory concentration (IC50) in experiment [1] is under 1000 nM; in experiment [2], under 100 nM.

Turning to `CN1C(=O)CCN(C2CCCC2)c2nc(Nc3cccc(CN4CCS(=O)(=O)CC4)c3)ncc21` [compound 177, 9-Cyclopentyl-2-[3-(1,1-dioxo-thiomorpholin-4-ylmethyl)-phenylamino]-5-methyl-5,7,8,9-tetrahydro-pyrimido[4,5-b][1,4]diazepin-6-one], the half-maximal inhibitory concentration (IC50) in experiment [1] was under 1000 nM; in experiment [2] it was under 100 nM.

For `CN1C(=O)CCN(C2CCCC2)c2nc(Nc3ccc(NC(=O)C4CC4)cc3)ncc21` [compound 178, Cyclopropanecarboxylic acid [4-(9-cyclopentyl-5-methyl-6-oxo-6,7,8,9-tetrahydro-5H-pyrimido[4,5-b][1,4]diazepin-2-ylamino)-phenyl]-amide], the IC50 in experiment [1] is under 1000 nM; in experiment [2], under 100 nM.

With `Cc1cc(Nc2ncc3c(n2)N(C2CCCC2)CCC(=O)N3C)ccc1NC(=O)C1CC1` [compound 179, Cyclopropanecarboxylic acid [4-(9-cyclopentyl-5-methyl-6-oxo-6,7,8,9-tetrahydro-5H-pyrimido[4,5-b][1,4]diazepin-2-ylamino)-2-methyl-phenyl]-amide], the IC50 in experiment [1] is under 10000 nM; in experiment [2], under 100 nM.

In the case of `CN1CCC(NC(=O)CCc2ccc(Nc3ncc4c(n3)N(C3CCCC3)CCC(=O)N4C)cc2)CC1` [compound 180, 3-[4-(9-Cyclopentyl-5-methyl-6-oxo-6,7,8,9-tetrahydro-5H-pyrimido[4,5-b][1,4]diazepin-2-ylamino)-phenyl]-N-(1-methyl-piperidin-4-yl)-propionamide], the values for the half-maximal inhibitory concentration (IC50) in experiment [1] and in experiment [2] were under 10000 nM and under 100 nM, respectively.

For `CN1CCC(NC(=O)Cc2ccc(Nc3ncc4c(n3)N(C3CCCC3)CCC(=O)N4C)cc2)CC1` [compound 181, 2-[4-(9-Cyclopentyl-5-methyl-6-oxo-6,7,8,9-tetrahydro-5H-pyrimido[4,5-b][1,4]diazepin-2-ylamino)-phenyl]-N-(1-methyl-piperidin-4-yl)-acetamide], the IC50 in experiment [1] is under 10000 nM; in experiment [2], under 100 nM.

As for `CCc1cc(C(=O)O)ccc1Nc1ncc2c(n1)N(C1CCCC1)CCC(=O)N2C` [compound 192, 4-(9-Cyclopentyl-5-methyl-6-oxo-6,7,8,9-tetrahydro-5H-pyrimido[4,5-b][1,4]diazepin-2-ylamino)-3-ethyl benzoic acid], the half-maximal inhibitory concentration (IC50) in experiment [1] and in experiment [2] was under 10000 nM in each case.

On to `CN1CCC(NC(=O)c2ccc(Nc3ncc4c(n3)N(C3CCCC3)CCC(=O)N4C)c(F)c2)CC1` [compound 215, 4-(9-Cyclopentyl-5-methyl-6-oxo-6,7,8,9-tetrahydro-5H-pyrimido[4,5-b][1,4]diazepin-2-ylamino)-3-fluoro-N-(1-methyl-piperidin-4-yl)-benzamide], for which the IC50 in experiment [1] is under 100 nM; in experiment [2] it was under 10000 nM.

For `CN1C(=O)C2(CC2)CN(C2CCCC2)c2nc(Nc3ccc4[nH]ncc4c3)ncc21` [compound 227, 9-Cyclopentyl-2-(1H-indazol-5-ylamino)-5-methyl-5,7,8,9-tetrahydro-pyrimido[4,5-b][1,4]diazepin-3,1′-cyclopropane-6-one], the IC50 in experiment [1] was under 100 nM; in experiment [2], under 1000 nM.

Take `CC(=O)Nc1ccc(Nc2ncc3c(n2)N(C2CCCC2)CCC(=O)N3C)cc1C` [compound 285, N-[4-(9-Cyclopentyl-5-methyl-6-oxo-6,7,8,9-tetrahydro-5H-pyrimido[4,5-b][1,4]diazepin-2-ylamino)-2-methyl-phenyl]-acetamide]: the half-inhibitory concentration (IC50) in experiment [1] was under 10000 nM; in experiment [2], under 100 nM.

Regarding `Cc1cc(Nc2ncc3c(n2)N(C2CCCC2)CCC(=O)N3C)ccc1NC(=O)C(C)(C)C` [compound 287, N-[4-(9-Cyclopentyl-5-methyl-6-oxo-6,7,8,9-tetrahydro-5H-pyrimido[4,5-b][1,4]diazepin-2-ylamino)-2-methyl-phenyl]-2,2-dimethyl-propionamide], the figures for the half-inhibitory concentration (IC50) in experiment [1] and in experiment [2] were under 10000 nM and under 100 nM, respectively.

Consider `CN1C(=O)CCN(C2CCCC2)c2nc(Nc3ccc4c(c3)C=CS4(=O)=O)ncc21` [compound 289, 9-Cyclopentyl-2-(1,1-dioxo-1H-1lambda*6*- benzo[b]thiophen-5-ylamino)-5-methyl-5,7,8,9-tetrahydro-pyrimido[4,5-b][1,4]diazepin-6-one], for which the concentration for half-maximal inhibition (IC50) in experiment [1] was under 1000 nM; in experiment [2], under 100 nM.

With `Cc1ccc(N2CCC(=O)N(C)c3cnc(Nc4ccc5c(c4)CS(=O)(=O)C5)nc32)cc1` [compound 290, 2-(2,2-Dioxo-2,3-dihydro-1H-2lambda*6*- benzo[c]thiophen-5-ylamino)-5-methyl-9-p-tolyl-5,7,8,9-tetrahydro-pyrimido[4,5-b][1,4]diazepin-6-one], the IC50 in experiment [1] is under 10000 nM; in experiment [2] it was under 100 nM.

Turning to `Cc1ccc(N2CCC(=O)N(C)c3cnc(Nc4ccc(NC(=O)C5CC5)c(C)c4)nc32)cc1` [compound 291, Cyclopropanecarboxylic acid [2-methyl-4-(5-methyl-6-oxo-9-p-tolyl-6,7,8,9-tetrahydro-5H-pyrimido[4,5-b][1,4]diazepin-2-ylamino)-phenyl]-amide], the IC50 in experiment [1] was under 10000 nM; in experiment [2], under 100 nM.

Consider `CN1C(=O)CCN(C2CCCC2)c2nc(Nc3ccc4sc(C(=O)O)cc4c3)ncc21` [compound 292, 5-(9-Cyclopentyl-5-methyl-6-oxo-6,7,8,9-tetrahydro-5H-pyrimido[4,5-b][1,4]diazepin-2-ylamino)-benzo[b]thiophene-2-carboxylic acid], for which the concentration for half-maximal inhibition (IC50) was under 1000 nM in experiment [1] and under 100 nM in experiment [2].

Turning to `CN1C(=O)CCN(C2CCCC2)c2nc(Nc3ccc(C(=O)N4CCOCC4)cc3)ncc21` [compound 293, 9-Cyclopentyl-5-methyl-2-[4-(morpholine-4-carbonyl)-phenylamino]-5,7,8,9-tetrahydro-pyrimido[4,5-b][1,4]diazepin-6-one], the results for the IC50 in experiment [1] and in experiment [2] were under 10000 nM and under 100 nM, respectively.

For `CN1C(=O)CCN(C2CCCC2)c2nc(Nc3ccc4c(c3)OCC(=O)N4)ncc21` [compound 294, 9-Cyclopentyl-5-methyl-2-(3-oxo-3,4-dihydro-2H-benzo[1,4]oxazin-7-ylamino)-5,7,8,9-tetrahydro-pyrimido[4,5-b][1,4]diazepin-6-one], the concentration for half-maximal inhibition (IC50) in experiment [1] and in experiment [2] was under 1000 nM each time.

As for `CN1C(=O)CCN(C2CCCC2)c2nc(Nc3ccc4c(c3)NC(=O)CO4)ncc21` [compound 295, 9-Cyclopentyl-5-methyl-2-(3-oxo-3,4-dihydro-2H-benzo[1,4]oxazin-6-ylamino)-5,7,8,9-tetrahydro-pyrimido[4,5-13][1,4]diazepin-6-one], the IC50 in experiment [1] is under 10000 nM; in experiment [2], under 100 nM.

In the case of `CN1C(=O)CCN(C2CCCC2)c2nc(Nc3ccc4sc(C(=O)O)cc4c3)ncc21` [compound 296], the IC50 is under 1000 nM in experiment [1] and under 100 nM in experiment [2].

For the molecule `CN1C(=O)CCN(C2CCCC2)c2nc(Nc3ccc(C(=O)N4CCOCC4)cc3)ncc21` [compound 297, 9-Cyclopentyl-5-methyl-2-[4-(morpholine-4-carbonyl)-phenylamino]-5,7,8,9-tetrahydro-pyrimido[4,5-b][1,4]diazepin-6-one], the IC50 in experiment [1] is under 10000 nM; in experiment [2] it was under 100 nM.
